Experimental data from US5472973A, “Fluorenyl derivatives as anti-inflammatory agents” (Scios Nova Inc., priority 1992, dated 1995).

Key:
inflammatory screens = test: Anti-inflammatory activity, general statements (oral activity, inflammatory screens); assay type: in vivo
Protocol: Such inflammatory agents typically include oxazolone, and the like. The reverse passive Arthus test offers another measure of the compound's utility in preventing an inflammatory response (Chang et al. Eur. J. Phar. 69:155-164 (1981)). Test compounds are typically administered intraperitoneally or orally. For intraperitoneal administration, the test compound can be given in dimethyl sulfoxide or in 0.5% methylcellulose 30 minutes prior to administration of the irritant. For oral administration, the test compound can be compounded into tablet or capsule form as well as dissolved in, for example, water or ethanol and swallowed prior to application of the irritant. Results can be expressed as the percent decrease in swelling in the compound-treated animals as compared to control animals that receive only the irritant.

[1] = test system: reverse passive Arthus reaction; test: Reverse Passive Arthus Reaction (RPA); assay type: in vivo, rat (male SD); conditions: ip, rat
Protocol: Male SD rats weighing between 200 and 300 g were used. Test compounds were dissolved in dimethyl sulfoxide and 1 ml/kg of this stock solution (100 mg/ml), on serial dilutions were injected intraperitoneally one hour before administration of the antigen or given orally. The animals were anesthetized inhalationally with isoflurane and then injected through the penile vein with 1 ml of a solution of 2.5 mg of Evan's blue dye and 5.0 mg of human serum albumin in 1 ml of saline. This treatment was followed immediately by intracutaneous injections of 0.075 ml of anti-human albumin diluted to contain 4.38 mg/ml of antibody at 2 sites opposite the midline back. Anesthesia was terminated and after three hours, the animals were sacrificed. The skin was removed and the blue stained areas cut out. The skin patches were soaked overnight in stoppered tubes containing 2 ml of 1N potassium hydroxide at 5° C. Then 9 ml of a mixture of five parts of a 1.2N phosphoric acid and thirteen parts of acetone were added to the tubes. The tube contents were agitated and centrifuged, and the absorbance measured at 620 nm. The data were calculated as inhibition of blueing by test compound compared to control animals receiving only antigen and antibody.

plasma fibrinogen = test: Adjuvant arthritis, plasma fibrinogen inhibition in rats; assay type: in vivo, rat (male Sprague Dawley); conditions: po, rat; for ED (maximal inhibition) at 100 mg/kg: 0.3 to 100 mg/kg, read-out: AA (p.o.) Dose yielding max inhibition (100 mg/kg)
[2] = test system: oxazolone-induced ear edema; test: Inhibition of ear edema caused by oxazolone; assay type: in vivo, mouse (CF-1); conditions: given orally, mouse, 24 h; dose not given
Protocol: CF-1 mice, 25-30 g body weight, six animals per group were used. The mice were sensitized to the irritant two weeks prior to the test by dribbling 100 μL of a 3% solution of oxazolone in acetone onto the scrotum of the animal. Test compounds were administered orally at doses of 100 mg/kg and 300 mg/kg for 1 hour prior to oxazolone, intraperitoneally as follows: The test compound was dissolved in dimethyl sulfoxide and doses of 10 mg/kg, 30 mg/kg and 100 mg/kg were injected 15 minutes prior to irritant. The irritant, 3% oxazolone in acetone, was added to the surface of the ear, 5 μl added to the upper surface and 5 μl added to the lower surface. After twenty four hours, the thickness of the ear was measured to 0.01 mm by a micrometer with loose drag, positioned at the lateral-most edge of the mid-point of the pinna. Data were calculated as the inhibition of increased ear thickness compared to control animals' receiving only the irritant. In general, % inhibition of greater than 20% is statistically significant (p<0.05 or less, Student's t-test for unpaired data).

Row | SMILES | activity when taken orally (inflammatory screens) | ED50 [1] [mg/kg] | ED (maximal inhibition) at 100 mg/kg (plasma fibrinogen) [mg/kg] | inhibition of increased ear thickness (oxazolone) [2] [%] | ED (maximal inhibition) (plasma fibrinogen; given orally, read-out: dose achieving maximum inhibition of plasma fibrinogen) [mg/kg]
1 | O=C(Nc1ccc(C(=O)NS(=O)(=O)c2ccccc2)cc1)OCCC1c2ccccc2-c2ccccc21 [N-{[9H-(fluorenyl-9-ethoxycarbonyl)]-4-amino-benzoyl}-benzenesulfonamide] | exhibit activity even when taken orally |  |  |  | 
2 | Cc1ccc2c(c1)C(CCOC(=O)Nc1ccc(C(=O)O)cc1)c1cc(C)ccc1-2 [Example 8, N-[9H-(2,7-Dimethylfluorenyl-9-ethoxycarbonyl)]amino-4-benzoic acid] | exhibit activity even when taken orally | 100 | 100 |  | 
3 | O=C(Nc1ccc(C(=O)O)cc1)OCCC1c2cc(Cl)ccc2-c2ccc(Cl)cc21 [Example 9] | exhibit activity even when taken orally | 34 | 3 |  | 
4 | O=C(Nc1ccc(C(=O)O)cc1)OC1c2ccccc2-c2ccccc21 [N-(9H-fluorenyl-9-oxycarbonyl)-4-aminobenzoic acid] | exhibit activity even when taken orally |  |  |  | 
5 | O=C(Nc1ccc(C(=O)O)cc1)OCCC1c2ccccc2-c2ccccc21 [Example 7, N-[9H-(Fluorenyl-9-ethoxycarbonyl)]amino-4-benzoic acid] | exhibit activity even when taken orally | 70 | 30 | 50 | 3
